Experimental data as given in the METLIN SMRT retention time set (Domingo-Almenara et al. 2019).

Experiment: gradient 5% acetonitrile 3 min, to 50% in 2 min, to 85% in 15 min, held 3 min, 100 µL/min
Conditions: column: Zorbax Extend-C18 2.1 x 50 mm; eluents: water / acetonitrile, 0.1% formic acid
How it was run: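 A Zorbax Extend-C18 column (2.1 × 50 mm, 1.8 μm) run at 100 μL/min with water and acetonitrile, both containing 0.1% formic acid, separated mixtures of ~100 pure standards. The HPLC was coupled to a quadrupole time-of-flight mass spectrometer operated in positive and negative ionization mode, with dead and dwell volumes of 40 μL and 900 μL. Each retention time was taken from a computationally picked adduct peak that was then manually inspected.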

Row | Structure (SMILES) | RP-LC retention time [s]
1 | O=C(NCCc1csc(-c2cccs2)n1)C1CCN(C(=O)Cc2ccc(F)cc2)CC1 | 774
2 | COc1ccc(CN2CCC([C@@H]3CNC[C@H]3CO)CC2)c(Cl)c1OC | 551
3 | Cc1noc(C2CN(C(=O)Nc3ccc(Cl)cc3F)CC23CCOCC3)n1 (stereo unspecified) | 769
4 | CC(C)c1noc(-c2cccnc2N2CCCN(C(=O)NCc3ccccc3)CC2)n1 | 920
5 | CC(NC(=O)Cc1cn(C)c2ncccc12)c1ccccc1 (stereo unspecified) | 679
6 | COc1ccc(-c2nc3cccc(C)n3c2Nc2ccccc2C)cc1 | 773
7 | O=C(CN1C(=O)CC(c2ccccc2)S(=O)(=O)c2ccccc21)Nc1cccc(F)c1 (stereo unspecified) | 863
8 | Cc1ccc(S(=O)(=O)N2CCC(n3cnnc3-c3ccccc3)CC2)cc1C | 859
9 | CC(C)c1ccc2c(c1)-c1ccccc1S(=O)(=O)N2CC(=O)NCCCN1CCOCC1 | 694
10 | CCN(c1ccccc1)S(=O)(=O)c1ccc2[nH]c(=O)[nH]c2c1 | 655
11 | CCOc1ccc(-n2c(N3CCC(C)CC3)nc3cc(C(=O)OC)ccc3c2=O)cc1 | 1300
12 | Cc1ccn2cc(-c3ccc(NC(=O)c4cc(Br)ccc4Cl)cc3)nc2n1 | 700
13 | O=C(Nc1cccc(F)c1)C1(CCO)CCN(c2ncccn2)C1 (stereo unspecified) | 639
14 | Clc1ccccc1-c1noc(Cc2nc(-c3ccc4c(c3)OCO4)cs2)n1 | 1140
15 | CCN(C(=O)c1nc(N2CCOCC2)c2cnn(C)c2n1)c1ccccc1 | 693
16 | CCNC(=O)N1CCC(c2noc(-c3ccncc3)n2)C1 (stereo unspecified) | 616
17 | CCOC(=O)C(=O)NCc1n[nH]c(=O)c2ccccc12 | 579
18 | COc1cccc(Nc2cc(C(=O)N3CCSCC3)nc3ccc(C)cc23)c1 | 694
19 | O=C(Nc1ccccc1)N1CCOC(CN(CC2CCCO2)C(=O)c2ccc3c(c2)OCO3)C1 (stereo unspecified) | 738
20 | Cc1cc2nn(CC(=O)N3CCC(C)CC3)c(=O)n2c(Nc2ccc(F)cc2)n1 | 990
21 | CCOc1ccc(C2c3[nH]c4ccccc4c3CCN2C(=O)Cc2cccs2)cc1 (stereo unspecified) | 1190
22 | O=C(NCc1csc(C2CCCN(C(=O)c3ccc(F)cc3F)C2)n1)C1CC1 (stereo unspecified) | 717

Row | Structure (SMILES) | RP-LC retention time [s]
23 | Fc1cccc(-c2nc3ncccn3c2NCc2ccc(Cl)cc2)c1 | 834
24 | O=C(CCc1ccccc1)Nc1c(-c2ccccc2)nc2ccccn12 | 663
25 | O=C(c1ccc2c(c1)OCCO2)N1CCCCC1 | 839
26 | CCC(=O)N1CCc2sc(C(=O)NCc3ccc(Cl)cc3)cc2C1 | 802
27 | CCC(=O)N1CCN(Cc2nc3cc(NC(=O)CC(C)C)ccc3n2C)CC1 | 603
28 | COc1ccc(NC(=O)N2CCc3c(c(-c4nnc(-c5ccccc5Cl)o4)nn3C)C2)cc1 | 853
29 | CCCSCCCNC(=O)c1cc2n(n1)CCCN(Cc1ccc(C)cc1)C2=O | 852
30 | Cc1cccc(NC(=O)N2CC(F)(F)C[C@H]2CN2CCCC2)c1C | 647
31 | CCc1ccccc1NC(=O)Cn1nc(N2CCCC(C)C2)c2ccccc2c1=O (stereo unspecified) | 1180
32 | CCN1CCn2cc(S(=O)(=O)N3CCN(c4cccc(C)c4)CC3)cc2C1=O | 858
33 | Cc1ccc(CCNS(=O)(=O)c2ccc3c(c2)CCCC(=O)N3)cc1 | 789
34 | Cc1cccc(C)c1-n1ccn(Cc2nc(-c3cccc(F)c3)no2)c(=O)c1=O | 901
35 | CC(C)CCNC(=O)C1(C)Cn2nc(C(=O)NCc3ccccc3Cl)cc2C(=O)N1C (stereo unspecified) | 814
36 | O=C(CCc1conc1-c1ccc(F)cc1)N1CCN(c2ccc(Cl)cc2)CC1 | 1090
37 | CN1C(=O)c2cc(C(=O)N3CCN(c4ncccn4)CC3)nn2CC1(C)C(=O)NC1CCCCC1 (stereo unspecified) | 702
38 | O=C(NC1CCCC1)C1CCN(C(=O)c2ncn3c2COC(c2ccc(Cl)cc2)C3)CC1 (stereo unspecified) | 780
39 | O=C(NC1CCCCCC1)C1CCCN(c2ncnc3c2nc2n3CCCCC2)C1 (stereo unspecified) | 816
40 | O=C(Cn1c(=O)c2cc(C3CC3)nn2c2ncccc21)Nc1ccc(F)c(F)c1 | 792
41 | Clc1ccc(Cn2c(CN3CCCC3)nc3ccccc32)cc1 | 750
42 | CCN(CC)CCNC(=O)C1CCCN(c2nc3cccnc3s2)C1 (stereo unspecified) | 577
43 | COc1ccc([C@@H]2CC(=O)c3c(O)cc(O[C@@H]4O[C@H](CO)[C@@H](O)[C@H](O)[C@H]4OC4O[C@@H](C)[C@H](O)[C@@H](O)[C@H]4O)cc3O2)cc1O (stereo partly specified) | 652
44 | CCOC(=O)C1CC(=O)c2cc(OC)c(OC)cc2C1 (stereo unspecified) | 812

Row | Structure (SMILES) | RP-LC retention time [s]
45 | COc1ccc(C(=O)c2cnc3ccc(OC)cc3c2N2CCN(C)CC2)cc1 | 561
46 | N#Cc1ccc(NC(=O)Cc2csc3nc(-c4ccccc4)cn23)cc1 | 763
47 | CC(C)c1nnc2n1CCN(C(=O)c1cc(-c3ccccc3)n[nH]1)C2 | 647
48 | COc1cccc(N2C(=O)Nc3ccccc3C2(O)C(=O)N2CCN(c3ccccn3)CC2)c1 (stereo unspecified) | 603
49 | O=c1c2ccc(Cl)cc2oc2cc(O)cc(O)c12 | 979
50 | CCc1cccc(NC(=O)C2CCCN(S(=O)(=O)c3cn(C(C)C)cn3)C2)c1 (stereo unspecified) | 893
51 | COC(=O)c1[nH]c(C)c(C(=O)C(C)N(CC2CCCCC2)C(=O)c2ccc(OC)cc2)c1C (stereo unspecified) | 708
52 | O=C(C1CCN(S(=O)(=O)c2cc(-c3noc(C4CCC4)n3)cs2)CC1)N1CCCCC1 | 971
53 | CCCCN(C)c1ccc(NC(=O)Cc2cccs2)c(C(=O)O)c1 | 759
54 | CCCNC(=O)C1CCCN(c2ccc(SCC(=O)Nc3ccc(C)c(C)c3)nn2)C1 (stereo unspecified) | 678
55 | O=C(Cn1nc2c3ccc(Cl)cc3ncn2c1=O)Nc1ccc(F)cc1 | 744
56 | CCOc1ccccc1NC(=O)N1CCCC(Cn2c(C)nc3cccnc32)C1 (stereo unspecified) | 618
57 | CCc1nncn1C1CCN(C(=O)c2cc(F)ccc2Cl)CC1 | 628
58 | CC(C)Cn1cc(S(=O)(=O)NC2CCCCCC2)c2cccnc21 | 1060
59 | Cc1nn2c(S(=O)(=O)NC3CCCCCC3)c(C)nc2s1 | 844
60 | CC1=C(c2ccccc2)S(=O)(=O)N=C1N1CCCN(C(=O)c2cc(F)ccc2F)CC1 | 827
61 | O=C(C1CCCC1)N1CCN(c2cc(-c3ccc(Cl)cc3)[nH]n2)CC1 | 877
62 | Cc1ccc(CNC(=O)N2CCC3(CC2)NC(=O)c2ccccc2O3)cc1 | 757
63 | Cc1cc(N2CCN(C)CC2)nc2ccc(NC(=S)NCc3ccc(F)cc3Cl)cc12 | 612
64 | CCn1ccc2sc(C)c(C(=O)NCc3ccc(Cl)cc3)c2c1=O | 891
65 | COc1ccc(C)cc1NC(=O)Nc1ccc2c(c1)CCN2S(=O)(=O)c1ccc(C)cc1 | 1100
66 | Cc1ccc(S(=O)(=O)N2CCC(CCC(=O)NC3CC3)CC2)cc1 | 789
